For the first assay, the system named is total AKT (T-AKT) and phosphorylated AKT (P-AKT (S473)). The assay is described as follows: Western blot of AKT degradation in BT474 cells. It counts as cell-based, human. The settings on record: 24 h, 1, 5 and 10 μM (12-13: 1, 3 and 10 μM). (Immunoblotting shows a protein as a band on a membrane.)
For the molecule “3-(((S)-2-(4-Chlorophenyl)-3-(4-((5R,7R)-7-hydroxy-5-methyl-6,7-dihydro-5H-cyclopenta[d]pyrimidin-4-yl)piperazin-1-yl)-3-oxopropyl)amino)-N-(6-((2-(2,6-dioxopiperidin-3-yl)-1,3-dioxoisoindolin-4-yl)amino)hexyl)propenamide [Compound 23]”, the “T-AKT and P-AKT protein degradation (western blot)” value (from here on “T-AKT and P-AKT protein degradation”) was “highly effective in reducing T-AKT and P-AKT protein levels”. As to “3-(((S)-2-(4-Chlorophenyl)-3-(4-((5R,7R)-7-hydroxy-5-methyl-6,7-dihydro-5H-cyclopenta[d]pyrimidin-4-yl)piperazin-1-yl)-3-oxopropyl)amino)-N-(4-((2-(2,6-dioxopiperidin-3-yl)-1,3-dioxoisoindolin-4-yl)amino)butyl)propenamide [Compound 21]”, the “T-AKT and P-AKT protein degradation” value was “marginally effective in inducing AKT degradation at 1–10 μM”. For the molecule “3-(((S)-2-(4-Chlorophenyl)-3-(4-((5R,7R)-7-hydroxy-5-methyl-6,7-dihydro-5H-cyclopenta[d]pyrimidin-4-yl)piperazin-1-yl)-3-oxopropyl)amino)-N-(7-((2-(2,6-dioxopiperidin-3-yl)-1,3-dioxoisoindolin-4-yl)amino)heptyl)propenamide [Compound 24]”, the “T-AKT and P-AKT protein degradation” value is “highly effective in reducing T-AKT and P-AKT protein levels”. For the molecule “3-(((S)-2-(4-Chlorophenyl)-3-(4-((5R,7R)-7-hydroxy-5-methyl-6,7-dihydro-5H-cyclopenta[d]pyrimidin-4-yl)piperazin-1-yl)-3-oxopropyl)amino)-N-(2-(2-((2-(2,6-dioxopiperidin-3-yl)-1,3-dioxoisoindolin-4-yl)amino)ethoxy)ethyl)propenamide [Compound 14]”, the “T-AKT and P-AKT protein degradation” value is listed as “not very effective at all concentrations tested”.

“3-(((S)-2-(4-Chlorophenyl)-3-(4-((5R,7R)-7-hydroxy-5-methyl-6,7-dihydro-5H-cyclopenta[d]pyrimidin-4-yl)piperazin-1-yl)-3-oxopropyl)amino)-N-(3-((2-(2,6-dioxopiperidin-3-yl)-1,3-dioxoisoindolin-4-yl)amino)propyl)propenamide [Compound 20]”: the “T-AKT and P-AKT protein degradation” value is given as “marginally effective in inducing AKT degradation at 1–10 μM”.

Regarding “3-(((S)-2-(4-Chlorophenyl)-3-(4-((5R,7R)-7-hydroxy-5-methyl-6,7-dihydro-5H-cyclopenta[d]pyrimidin-4-yl)piperazin-1-yl)-3-oxopropyl)amino)-N-(8-((2-(2,6-dioxopiperidin-3-yl)-1-oxoisoindolin-4-yl)amino)octyl)propenamide [Compound 28]”, the “T-AKT and P-AKT protein degradation” value is on record as “completely abolished AKT degradation activity”.

As to `Cc1ncsc1-c1ccc(CNC(=O)[C@@H]2C[C@@H](O)CN2C(=O)[C@@H](NC(=O)COCCOCCNC(=O)CCNC[C@@H](C(=O)N2CCN(c3ncnc4c3[C@H](C)C[C@H]4O)CC2)c2ccc(Cl)cc2)C(C)(C)C)cc1` [Compound 4, (2S,4R)-1-((2S,18S)-2-(tert-Butyl)-18-(4-chlorophenyl)-19-(4-((5R,7R)-7-hydroxy-5-methyl-6,7-dihydro-5H-cyclopenta[d]-pyrimidin-4-yl)piperazin-1-yl)-4,13,19-trioxo-6,9-dioxa-3,12,16-tri-azanonadecanoyl)-4-hydroxy-N-(4-(4-methylthiazol-5-yl)benzyl)-pyrrolidine-2-carboxamide], the “T-AKT and P-AKT protein degradation” value was “less effective in AKT degradation”. On the same count and under the same terms, as for “3-(((S)-2-(4-Chlorophenyl)-3-(4-((5R,7R)-7-hydroxy-5-methyl-6,7-dihydro-5H-cyclopenta[d]pyrimidin-4-yl)piperazin-1-yl)-3-oxopropyl)amino)-N-(2-((2-(2,6-dioxopiperidin-3-yl)-1,3-dioxoisoindolin-4-yl)amino)ethyl)propenamide [Compound 19]”, the entry is “marginally effective in inducing AKT degradation at 1–10 μM”; as for `Cc1ncsc1-c1ccc(CNC(=O)[C@@H]2C[C@@H](O)CN2C(=O)[C@@H](NC(=O)CCCCNC(=O)CCNC[C@@H](C(=O)N2CCN(c3ncnc4c3[C@H](C)C[C@H]4O)CC2)c2ccc(Cl)cc2)C(C)(C)C)cc1` [Compound 6, (2S,4R)-1-((S)-2-(5-(3-(((S)-2-(4-Chlorophenyl)-3-(4-((5R,7R)-7-hydroxy-5-methyl-6,7-dihydro-5H-cyclopenta[d]pyrimidin-4-yl)-piperazin-1-yl)-3-oxopropyl)amino)propanamido)pentanamido)-3,3-dimethylbutanoyl)-4-hydroxy-N-(4-(4-methylthiazol-5-yl)-benzyl)pyrrolidine-2-carboxamide], “concentration-dependently reduced the protein levels of T-AKT and P-AKT”. Take “(2S,4R)-1-((2S,25S)-2-(tert-Butyl)-25-(4-chlorophenyl)-26-(4-((5R,7R)-7-hydroxy-5-methyl-6,7-dihydro-5H-cyclopenta[d]-pyrimidin-4-yl)piperazin-1-yl)-4,20,26-trioxo-7,10,13,16-tetraoxa-3,19,23-triazahexacosanoyl)-4-hydroxy-N-(4-(4-methylthiazol-5-yl)benzyl)pyrrolidine-2-carboxamide [Compound 5]”: the “T-AKT and P-AKT protein degradation” value is listed as “less effective in AKT degradation”.

The same assay, now with this note: 24 h, controls at 1 μM.
As to `Cc1ncsc1-c1ccc(CNC(=O)[C@@H]2C[C@@H](O)CN2C(=O)[C@@H](N)C(C)(C)C)cc1` [VHL-1, reference compound], the “T-AKT protein level (western blot)” value is recorded as “no detectable effect on the T-AKT protein level”. Turning to `Nc1cccc2c1C(=O)N(C1CCC(=O)NC1=O)C2=O` (centres unmarked) [POM, pomalidomide, reference compound], the “T-AKT protein level (western blot)” value is on record as “no detectable effect on the T-AKT protein level”.

Still in this assay, the particulars now being: 24 h, indicated concentrations.
In the case of `C[C@@H]1C[C@@H](O)c2ncnc(N3CCN(C(=O)[C@H](CNCCC(=O)NCCCCCCCCNc4cccc5c4C(=O)N(C4CCC(=O)N(C)C4=O)C5=O)c4ccc(Cl)cc4)CC3)c21` (stereo partly drawn) [Compound 62, 3-(((S)-2-(4-Chlorophenyl)-3-(4-((5R,7R)-7-hydroxy-5-methyl-6,7-dihydro-5H-cyclopenta[d]pyrimidin-4-yl)piperazin-1-yl)-3-oxopropyl)amino)-N-(8-((2-(1-methyl-2,6-dioxopiperidin-3-yl)-1,3-dioxoisoindolin-4-yl)amino)octyl)propenamide], the “extent of T-AKT degradation in concentration-response” value is “did not degrade T-AKT”. Still for that read-out and setting: then `Cc1ncsc1-c1ccc([C@H](C)NC(=O)[C@H]2C[C@H](O)CN2C(=O)[C@@H](NC(=O)CCCCCCCCCCC(=O)NCCNC[C@@H](C(=O)N2CCN(c3ncnc4c3[C@H](C)C[C@H]4O)CC2)c2ccc(Cl)cc2)C(C)(C)C)cc1` [Compound 61, N^1-(2-(((S)-2-(4-Chlorophenyl)-3-(4-((5R,7R)-7-hydroxy-5-methyl-6,7-dihydro-5H-cyclopenta[d]pyrimidin-4-yl)piperazin-1-yl)-3-oxopropyl)amino)ethyl)-N^12-((S)-1-((2R,4S)-4-hydroxy-2-(((S)-1-(4-(4-methylthiazol-5-yl)phenyl)ethyl)carbamoyl)pyrrolidin-1-yl)-3,3-dimethyl-1-oxobutan-2-yl)dodecanediamide], with “did not degrade T-AKT”.

(Values after paper PMC8819633 (Journal of medicinal chemistry, 2021).)
